Source: patent US7956070B2, “Piperidines as chemokine modulators (CCR)” (AstraZeneca AB, priority 2004, dated 2011)
Like-named read-outs stand apart in the source and are kept apart here.

Experiments:
[1] = biological target: T1, human H1 receptor (Homo sapiens, UniProt P35367); assay: Histamine H1 receptor binding, competition displacement of [3H]-pyrilamine; details: 1 nM [3H]-pyrilamine, membranes from recombinant CHO-K1 cells expressing the human H1 receptor, 1 hour at room temperature; read-out: H1 pKi (converted)
T1 construct: purchased Euroscreen SA, Brussels, Belgium ES-390-M; host or cells: recombinant CHO-K1 cells (membranes)
T1 sequence (P35367 whole entry): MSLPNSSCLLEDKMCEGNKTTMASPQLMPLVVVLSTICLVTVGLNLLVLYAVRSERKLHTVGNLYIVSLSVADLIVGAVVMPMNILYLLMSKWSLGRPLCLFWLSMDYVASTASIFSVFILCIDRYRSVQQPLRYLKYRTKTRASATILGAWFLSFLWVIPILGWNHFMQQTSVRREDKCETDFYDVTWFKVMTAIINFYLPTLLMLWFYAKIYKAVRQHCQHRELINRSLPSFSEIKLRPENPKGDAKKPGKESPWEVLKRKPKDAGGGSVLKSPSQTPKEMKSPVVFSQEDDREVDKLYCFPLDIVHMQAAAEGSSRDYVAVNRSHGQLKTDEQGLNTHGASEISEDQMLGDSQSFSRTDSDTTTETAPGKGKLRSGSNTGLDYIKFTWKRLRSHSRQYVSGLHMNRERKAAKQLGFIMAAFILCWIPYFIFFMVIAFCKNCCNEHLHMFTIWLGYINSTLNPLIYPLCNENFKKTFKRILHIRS
Description: Histamine H1 receptor binding activity of compounds of the invention was assessed by competition displacement of 1 nM [3H]-pyrilamine (Amersham, Bucks, Product code TRK 608, specific activity 30 Ci/mmol) to 2 μg membranes prepared from recombinant CHO-K1 cells expressing the human H1 receptor (Euroscreen SA, Brussels, Belgium, product code ES-390-M) in assay buffer (50 mM Tris pH 7.4 containing 2 mM MgCl2, 250 mM sucrose and 100 mM NaCl) for 1 hour at room temperature.
The following compounds of the invention gave inhibition of [3H]pyrilimine binding: […]

[2] = pKa measurement (Sirius GLpKa); assay type: physicochemical
Description: The pKa of a compound of formula (I) is measured using one of the following methodologies.
The apparatus used consists of a Sirius GLpKa instrument with DPAS (Dip Probe Absorption Spectroscopy) attachment. Key elements of the apparatus are a Sirius pH electrode, stirrer, titrant dispensing tubes, a multi-tipped dispenser, motor driven dispensing syringes, fibre optic UV probe and diode array detector. In addition, solutions in PTFE containers of ionic strength adjusted (0.10 M KCl) distilled water, nominally 0.50 M HCl, nominally 0.50 M KOH and 80% v/v methanol:water are also housed within the instrument. The titration solutions are constantly purged with oxygen free nitrogen. The reservoir for the potassium hydroxide solution is further protected from atmospheric contamination by a soda-lime guard-tube. Samples are placed in titration vessels which in turn are placed in a movable autosampler tray (maximum capacity 48 samples). The electrode, stirrer, dispensing tubing/tips and DPAS probe are housed on a movable, automated z-tower unit, which, controlled by software, positions itself in the appropriate titration vessel when titrating. The Sirius GLpKa instrument is directly connected to a dedicated PC supporting software for assay setup and subsequent data analysis. Assays are set up using the GlpKaControl software and results are analysed using the pKaLOGP and pKaUV software on the PC. The software also allows determination of multiple pKas using complex curve fitting analyses.
Method B: Potentiometric Method
Two types of potentiometric titrations may be performed in order to determine a compound's pKa/pKas; a purely aqueous titration (recommended for fairly water soluble compounds) and a cosolvent titration, where variable amounts of methanol are added to the sample in addition to ionic strength adjusted water (recommended for compounds which are not soluble in water). For the latter, a value for the compound's pKa in pure ionic strength adjusted water can be estimated by the Yasuda-Shedlovsky procedure. This involves measuring the apparent pKa of the compound at three known weight percentages of methanol:water (transposed into reciprocals of the dielectric constants of the medium, 1/εr) and then extrapolating to 0 wt % methanol (1/εr=[…]).
The GLpKa instrument unit also houses two aqueous wash containers (containing distilled water), a waste beaker (to dispense extraneous solutions into) and a container holding pH 7.00 buffer solution for the electrode to be immersed in during periods between titrations. Each time a set of titrations is carried out, these solutions are replaced. Position 1 in the autosampler contains a titration vessel containing pH 7.00 buffer solution (changed for each titration set). For each titration set to be run, position 2 houses a titration vessel into which ionic strength adjusted water is dispensed (typically 15.00 mL). This in turn is adjusted to pH 1.80 with aqueous HCl and then titrated to pH 12.20 by gradual addition of aqueous KOH. This is referred to as a blank titration and is employed by the pKaLogP software in order to calibrate the pH electrode and to standardise the HCl solution, using the so-called four-plus parameter procedure. Periodically, (typically every 3 months, or when the titration solutions run low) the titration solutions are replaced and the KOH solution standardised against potassium hydrogen phthalate using a standardisation procedure within the GLpKaControl software. Between 1-2 mg of each sample must be accurately weighed out. Samples are placed in provided glass titration vessels. The weight of compound must be entered into the GLpKaControl software. […]

[3] = ionic strength adjusted (0.10 M KCl) water, Method B: potentiometric method, read-out: pKa (measured using Method B)

| Ki [1] | pKa [2, 3] | pKa ([2]; method not stated, read-out: measured pKa) | Structure (SMILES) |
| --- | --- | --- | --- |
| 15.8 nM | 7.5 |  | Cc1[nH]nnc1C(=O)NC[C@@H](O)CN1CCC(Oc2ccc(Cl)c(Cl)c2)CC1 [Example 8, N-{(2R)-3-[4-(3,4-Dichlorophenoxy)piperidin-1-yl]-2-hydroxypropyl}-5-methyl-1H-1,2,3-triazole-4-carboxamide] |
| 25.1 nM | 3.8 |  | N#Cc1cc(C(=O)NC[C@@H](O)CN2CCC(Oc3ccc(Cl)c(Cl)c3)CC2)c(C2CC2)[nH]c1=O [Example 16, 5-Cyano-2-cyclopropyl-N-[(2R)-3-[4-(3,4-dichlorophenoxy)-1-piperidinyl]-2-hydroxypropyl]-1,6-dihydro-6-oxo-3-pyridinecarboxamide] |
| 316 nM | 5.3 |  | CS(=O)(=O)Nc1cc(C(F)(F)F)c(C(=O)NC[C@@H](O)CN2CCC(Oc3ccc(Cl)c(Cl)c3)CC2)cn1 [Example 18, N-{(2R)-3-[4-(3,4-Dichlorophenoxy)piperidin-1-yl]-2-hydroxypropyl}-6-[(methylsulfonyl)amino]-4-(trifluoromethyl)nicotinamide] |
| 15.8 nM | 7.4 |  | O=C(NC[C@@H](O)CN1CCC(Oc2ccc(Cl)c(Cl)c2)CC1)c1sc(=O)[nH]c1-c1ccc(F)cc1 [Example 25, N-{(2R)-3-[4-(3,4-Dichlorophenoxy)piperidin-1-yl]-2-hydroxypropyl}-4-(4-fluorophenyl)-2-oxo-2,3-dihydro-1,3-thiazole-5-carboxamide] |
| 126 nM |  | 2.3 | Cc1c(OC2CCN(C[C@H](O)CNC(=O)c3ccc(Cl)c(C(=O)O)c3)CC2)ccc(Cl)c1Cl [Example 42, 2-Chloro-5-[({(2R)-3-[4-(3,4-dichloro-2-methylphenoxy)piperidin-1-yl]-2-hydroxypropyl}amino)carbonyl]benzoic acid] |
| 12.6 nM |  |  | Cc1c(OC2CCN(C[C@H](O)CNC(=O)COc3cc(C(=O)O)ccc3Cl)CC2)ccc(Cl)c1Cl [Example 44, 4-Chloro-3-[2-({(2R)-3-[4-(3,4-dichloro-2-methylphenoxy)piperidin-1-yl]-2-hydroxypropyl}amino)-2-oxoethoxy]benzoic acid] |
| 63.1 nM |  |  | Cc1c(OC2CCN(C[C@H](O)CNC(=O)c3ccc(Cl)c(OCC(=O)O)c3)CC2)ccc(Cl)c1Cl [Example 45, {2-Chloro-5-[({(2R)-3-[4-(3,4-dichloro-2-methylphenoxy)piperidin-1-yl]-2-hydroxypropyl}amino)carbonyl]phenoxy}acetic acid] |
